Reference: ChEMBL document CHEMBL1131045, “Indole-2-carboxamide inhibitors of human liver glycogen phosphorylase” (J Med Chem, 1998)
Where “and” joins values, the source holds several entries; their conditions need not be identical. Equal entries are not always repeated.

Columns and labels:
Mus musculus [1] = experiment: Hypoglycemic responses resulting from oral dosing in diabetic ob/ob mice(inactive dose), po; format: functional
[2] = Inhibition of forskolin-stimulated glycogenolysis in SK-HEP-1 cells; format: functional, cell-based; conditions: Homo sapiens, SK-HEP1
[3] = biological target: T1, Glycogen phosphorylase, liver form (Homo sapiens, UniProt P06737); experiment: In vitro inhibitory activity against recombinant human liver glycogen phosphorylase a (rHLGPa) catalyzed release of phosphate from glucose-1-phosphate.
T1 sequence (P06737 whole entry): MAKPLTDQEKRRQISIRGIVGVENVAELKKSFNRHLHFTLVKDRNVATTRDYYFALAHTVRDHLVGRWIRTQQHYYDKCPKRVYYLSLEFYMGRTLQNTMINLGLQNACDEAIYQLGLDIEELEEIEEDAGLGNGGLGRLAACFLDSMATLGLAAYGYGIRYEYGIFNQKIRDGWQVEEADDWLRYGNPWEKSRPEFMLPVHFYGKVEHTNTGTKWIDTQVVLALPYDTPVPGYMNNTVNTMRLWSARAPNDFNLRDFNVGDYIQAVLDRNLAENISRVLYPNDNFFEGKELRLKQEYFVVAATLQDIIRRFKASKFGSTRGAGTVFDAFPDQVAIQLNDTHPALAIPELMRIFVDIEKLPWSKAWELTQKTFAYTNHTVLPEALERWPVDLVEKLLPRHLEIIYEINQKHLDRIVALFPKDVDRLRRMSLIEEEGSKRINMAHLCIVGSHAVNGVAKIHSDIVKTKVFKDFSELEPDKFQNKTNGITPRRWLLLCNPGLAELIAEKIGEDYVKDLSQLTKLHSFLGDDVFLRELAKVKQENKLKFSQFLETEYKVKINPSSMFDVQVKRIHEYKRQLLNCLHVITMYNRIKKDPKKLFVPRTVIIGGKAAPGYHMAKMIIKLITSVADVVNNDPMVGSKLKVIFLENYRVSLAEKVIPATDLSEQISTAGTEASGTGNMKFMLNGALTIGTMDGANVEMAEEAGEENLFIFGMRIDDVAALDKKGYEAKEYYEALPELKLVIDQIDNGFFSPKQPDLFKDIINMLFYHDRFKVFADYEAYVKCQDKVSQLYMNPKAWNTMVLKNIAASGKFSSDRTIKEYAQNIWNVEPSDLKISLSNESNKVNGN

Mus musculus [4] = experiment: Hypoglycemic responses resulting from oral dosing in diabetic ob/ob mice(active dose), po; format: functional
Mus musculus [5] = organism: Mus musculus; experiment: Percent decrease in drug -treated plasma glucose concentration, relative to vehicle treated control diabetic ob/ob mice; format: functional

IC50 [2] [µM]	IC50 [3] [µM]	Compound	Dose (Mus musculus [1]) [mg/kg]	Dose (Mus musculus [4])	Glucose (Mus musculus [5])
3.3	0.097	CN(C)C(=O)[C@H](O)[C@H](Cc1ccccc1)NC(=O)c1cc2cc(Br)ccc2[nH]1	50	–	–
5.1	0.26	O=C(N[C@@H](Cc1ccccc1)C(=O)N1CCC(O)CC1)c1cc2cc(Cl)ccc2[nH]1	10	25 mg/kg	36%
5.2	0.11	CNC(=O)[C@H](Cc1ccccc1)NC(=O)c1cc2cc(Cl)ccc2[nH]1	25	50 mg/kg	49%
> 30	0.68	CNC(=O)[C@H](O)[C@H](Cc1ccccc1)NC(=O)c1cc2cc(Cl)ccc2[nH]1	–	–	–
> 30	0.14	COC(=O)[C@H](Cc1ccccc1)NC(=O)c1cc2cc(Cl)ccc2[nH]1	50	–	–
13	0.21	COC(=O)[C@H](O)[C@H](Cc1ccccc1)NC(=O)c1cc2cc(Cl)ccc2[nH]1	50	–	–
–	1.7	NC(=O)[C@H](O)[C@H](Cc1ccccc1)NC(=O)c1cc2cc(Cl)ccc2[nH]1	–	–	–
–	> 10	O=C(N[C@H](CO)Cc1ccccc1)c1cc2cc(Cl)ccc2[nH]1	–	–	–
7.8	0.4	CN(C)C(=O)[C@H](Cc1ccccc1)NC(=O)c1cc2ccccc2[nH]1	25	50 mg/kg	40%
1.5	0.11	CN(C)C(=O)[C@H](O)[C@H](Cc1ccccc1)NC(=O)c1cc2cc(Cl)ccc2[nH]1	15	50 mg/kg and 25 mg/kg	40% and 32%
12	0.22	CNC(=O)[C@@H](Cc1ccccc1)NC(=O)c1cc2cc(Cl)ccc2[nH]1	25	50 mg/kg	39%
6.2	0.17	CN(C)C(=O)[C@H](O)[C@H](Cc1ccccc1)NC(=O)c1cc2cc(F)ccc2[nH]1	10	25 mg/kg	33%
–	6.8	O=C(N[C@@H](Cc1ccccc1)[C@@H](O)CO)c1cc2cc(Cl)ccc2[nH]1	–	–	–
–	1.8	CN(C)C(=O)[C@@H](O)[C@@H](Cc1ccccc1)NC(=O)c1cc2cc(Cl)ccc2[nH]1	–	–	–
12	0.26	CN(C)C(=O)[C@@H](Cc1ccccc1)NC(=O)c1cc2cc(Cl)ccc2[nH]1	–	–	–
1.4	0.11	CN(C)C(=O)[C@H](Cc1ccccc1)NC(=O)c1cc2cc(Br)ccc2[nH]1	50	–	–
> 30	1.7	O=C(N[C@@H](Cc1ccccc1)C(=O)O)c1cc2cc(Cl)ccc2[nH]1	–	–	–
–	4.7	COc1ccc2[nH]c(C(=O)N[C@@H](Cc3ccccc3)C(=O)N(C)C)cc2c1	–	–	–
1.9	–	O=C(N[C@@H](Cc1ccc(F)cc1)C(=O)N1CCC(O)CC1)c1cc2cc(Cl)ccc2[nH]1	5	–	44% and 45% and 26% and 24%
–	8.7	CN(C)C(=O)[C@@H](O)[C@H](Cc1ccccc1)NC(=O)c1cc2cc(Cl)ccc2[nH]1	50	–	–
–	1.7	CN(C)C(=O)[C@H](O)[C@@H](Cc1ccccc1)NC(=O)c1cc2cc(Cl)ccc2[nH]1	–	–	–
2.3	0.43	CN(C)C(=O)[C@H](Cc1ccccc1)NC(=O)c1cc2cc(F)ccc2[nH]1	50	–	–
–	6.5	CN(C)C(=O)[C@H](O)[C@H](CC1CCCCC1)NC(=O)c1cc2cc(Cl)ccc2[nH]1	–	–	–
> 30	0.33	O=C(N[C@@H](Cc1ccccc1)[C@@H](O)C(=O)O)c1cc2cc(Cl)ccc2[nH]1	–	–	–
1.9	0.082	CN(C)C(=O)[C@H](Cc1ccccc1)NC(=O)c1cc2cc(Cl)ccc2[nH]1	–	–	–
> 30	0.44	CN(C)C(=O)[C@H](O)[C@H](Cc1ccccc1)NC(=O)c1cc2ccccc2[nH]1	–	–	–
